In patent US12398151B2, “Sumo inhibitor compounds and uses thereof” (SUVALENT THERAPEUTICS, INC., priority 2019, dated 2025):
Like-named read-outs stand apart in the source and are kept apart here.

Columns and labels:
Atg7 = biological target: T1, Atg7 (Homo sapiens, UniProt O95352); assay: Atg7 activating enzyme (E1) inhibition; format: biochemical; settings: 25 uM compound, 60 min preincubation; for inhibition at 25 µM: read-out: Atg7 percent inhibition of adduct formation
T1 sequence (O95352 1-703): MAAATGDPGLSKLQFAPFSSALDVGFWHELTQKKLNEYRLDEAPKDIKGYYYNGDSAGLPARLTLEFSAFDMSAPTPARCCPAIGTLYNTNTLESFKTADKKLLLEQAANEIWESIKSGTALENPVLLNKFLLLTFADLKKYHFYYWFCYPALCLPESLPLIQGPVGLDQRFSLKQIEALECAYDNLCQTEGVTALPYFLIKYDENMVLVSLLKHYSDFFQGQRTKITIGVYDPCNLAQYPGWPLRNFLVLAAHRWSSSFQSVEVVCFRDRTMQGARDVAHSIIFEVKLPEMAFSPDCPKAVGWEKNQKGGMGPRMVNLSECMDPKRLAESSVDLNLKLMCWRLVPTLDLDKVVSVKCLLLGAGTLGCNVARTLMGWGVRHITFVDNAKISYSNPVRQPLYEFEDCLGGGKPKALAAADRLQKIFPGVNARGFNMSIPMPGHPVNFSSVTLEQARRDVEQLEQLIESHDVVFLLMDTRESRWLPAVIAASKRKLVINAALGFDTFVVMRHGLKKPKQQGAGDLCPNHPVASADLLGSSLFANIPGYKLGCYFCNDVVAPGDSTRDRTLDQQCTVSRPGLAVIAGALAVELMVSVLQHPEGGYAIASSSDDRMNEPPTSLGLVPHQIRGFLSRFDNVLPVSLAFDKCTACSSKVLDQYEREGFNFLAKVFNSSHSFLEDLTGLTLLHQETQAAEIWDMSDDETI
Description: (§1) Compounds are evaluated for their inhibitory effect on activating enzymes (E1) of ubiquitin, SUMO, Nedd8, Urm1, ISG15 or Atg7 using previously reported methods and protocols. One example is in: Allosteric inhibition of ubiquitin-like modifications by a class of inhibitor of SUMO-activating enzyme. Cell Chemical Biology, 26, 1-11, 2019. PMID: 28051857.
(§2) Compounds are tested in the following manner. The compound and SUMO E1 are incubated for a predetermined amount of time. UBC9, SUMO1, and ATP are added to the E1-compound mixture and incubated at 37° C. The reaction is quenched with Laemmli Buffer. The UBC9-SUMO1 conjugation is analyzed via SDS gel electrophoresis. The percent inhibition is measured by the intensity of the UBC9-SUMO1 band compared to the no compound control. Activities are listed as compound concentration (uM), preincubation time of E1 with compound (min), and percent inhibition of adduct formation (%). […]

SUMO E1 = biological target: T2, SUMO E1 (Homo sapiens, UniProt Q9UBT2); assay: SUMO E1 inhibition: UBC9-SUMO1 conjugation by SDS gel electrophoresis; format: biochemical; settings: for inhibition at 1 µM: 1 uM compound; for inhibition at 27 µM: 27 uM compound; for inhibition at 10 µM: 10 uM compound; for inhibition at 9 µM: 9 uM compound
T2 sequence (Q9UBT2 1-640): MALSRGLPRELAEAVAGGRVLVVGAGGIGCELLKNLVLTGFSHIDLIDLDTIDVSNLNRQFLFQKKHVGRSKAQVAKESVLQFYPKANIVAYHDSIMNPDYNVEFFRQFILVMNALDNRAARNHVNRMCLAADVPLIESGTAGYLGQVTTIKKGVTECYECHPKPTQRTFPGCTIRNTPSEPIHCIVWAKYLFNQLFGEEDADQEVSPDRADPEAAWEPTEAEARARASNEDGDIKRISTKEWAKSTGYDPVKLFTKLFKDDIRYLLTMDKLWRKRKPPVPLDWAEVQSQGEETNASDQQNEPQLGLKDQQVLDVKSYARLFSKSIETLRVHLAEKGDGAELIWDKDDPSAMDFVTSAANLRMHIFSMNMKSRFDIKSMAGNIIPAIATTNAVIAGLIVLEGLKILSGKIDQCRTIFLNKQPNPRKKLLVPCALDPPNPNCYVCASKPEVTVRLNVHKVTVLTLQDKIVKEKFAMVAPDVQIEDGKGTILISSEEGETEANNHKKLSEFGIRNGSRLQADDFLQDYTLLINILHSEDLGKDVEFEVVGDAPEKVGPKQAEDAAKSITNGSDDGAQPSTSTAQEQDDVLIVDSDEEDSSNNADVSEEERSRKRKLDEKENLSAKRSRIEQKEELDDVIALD
T2 sequence (Q9UBE0 1-346 partner): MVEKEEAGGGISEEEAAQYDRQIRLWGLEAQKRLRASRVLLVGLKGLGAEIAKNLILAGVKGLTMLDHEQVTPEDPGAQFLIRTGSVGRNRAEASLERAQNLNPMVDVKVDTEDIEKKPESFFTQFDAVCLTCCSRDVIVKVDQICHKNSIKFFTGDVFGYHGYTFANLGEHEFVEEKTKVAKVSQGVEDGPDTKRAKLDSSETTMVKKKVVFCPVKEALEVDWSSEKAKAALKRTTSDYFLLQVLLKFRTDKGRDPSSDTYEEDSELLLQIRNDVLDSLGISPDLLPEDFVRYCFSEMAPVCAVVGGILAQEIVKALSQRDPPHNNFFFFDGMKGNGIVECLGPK
Description: as §1, §2

[1] = 30 min preincubation, read-out: SUMO E1 percent inhibition of adduct formation
[2] = 25 uM compound, 60 min preincubation, read-out: SUMO E1 percent inhibition of adduct formation
[3] = 60 min preincubation, read-out: SUMO E1 percent inhibition of adduct formation

inhibition at 25 µM (Atg7) [%]	inhibition at 25 µM (SUMO E1; [2]) [%]	SMILES	further results
< 1		C=CC(=O)N1CCc2cc(-c3ccccc3)ccc2C1 [Compound 6]	inhibition at 25 µM (SUMO E1; 25 uM compound, 30 min preincubation, read-out: SUMO E1 percent inhibition of adduct formation): < 1%
< 1		Cc1ccccc1[C@H]1CN(C(=O)/C=C/C(F)(F)F)Cc2sc(Cl)cc21 [Compound 108]	inhibition at 1 µM (SUMO E1; [1]): 100%
< 1		Cc1ccccc1[C@H]1CN(C(=O)/C=C/C(F)(F)c2ccccn2)Cc2sc(Cl)cc21 [Compound 143]	inhibition at 27 µM (SUMO E1; [1]): < 1%
< 1	40	C=CC(=O)N1CCc2cc(CC(C)C)ccc2C1 [Compound 19]	
< 1	< 1	C=CC(=O)N1Cc2cc(OC)ccc2[C@@H](c2ccc(Cl)cc2)C1 [Compound 34]	
< 1	5	C=CC(=O)N1Cc2cccc(Br)c2[C@@H](c2ccccc2)C1 [Compound 62]	
< 1		C=CC(=O)N1Cc2cc(Br)ccc2[C@@H](c2ccccc2)C1 [Compound 61]	inhibition at 10 µM (SUMO E1; [3]): 100%
100		Cc1ccccc1[C@H]1CN(C(=O)CCl)Cc2sc(Cl)cc21 [Compound 115]	inhibition at 27 µM (SUMO E1; [1]): 80%
< 1	< 1	C=CC(=O)N1Cc2ccccc2[C@@H](c2c(F)cccc2F)C1 [Compound 43]	
< 1		C=CC(=O)N1Cc2sccc2[C@@H]([C@H]2CCCN(C)C2)C1 [Compound 146]	inhibition at 9 µM (SUMO E1; [1]): < 1%
< 1	40	COC(=O)/C=C/C(=O)N1Cc2ccccc2[C@@H](c2ccccc2)C1 [Compound 37]	
< 1		C=CC(=O)N1Cc2sc(Cl)cc2[C@@H](c2ccccc2OCCCN2CCCC2)C1 [Compound 153]	inhibition at 6 µM (SUMO E1; 6 uM compound, 15 min preincubation, read-out: SUMO E1 percent inhibition of adduct formation): < 1%
< 1		O=C(/C=C/C(F)(F)F)N1Cc2sc(Cl)cc2[C@@H](c2ccccc2CC2CCOCC2)C1 [Compound 141]	inhibition at 1 µM (SUMO E1; [1]): 50%
< 1	20	C=CC(=O)N1Cc2ccc(NC(=O)c3cccnc3)cc2C1 [Compound 16]	
< 1		Cc1ccccc1[C@H]1CN(C(=O)/C=C/c2ccccn2)Cc2sc(Cl)cc21 [Compound 119]	inhibition at 27 µM (SUMO E1; [1]): < 1%
< 1	< 1	C=CC(=O)N1Cc2ccc(NC(=O)c3ccc(F)cc3)cc2C1 [Compound 15]	
< 1	< 1	C=CC(=O)N1Cc2ccc(Oc3ccccc3)cc2[C@@H](c2ccccc2)C1 [Compound 30]	
< 1		C=CC(=O)N1Cc2sc(Cl)cc2[C@@H](c2ccccc2)C1 [Compound 73]	inhibition at 10 µM (SUMO E1; [3]): 100%
< 1		C=CC(=O)N1Cc2sc(C)cc2[C@@H](c2ccccc2C)C1 [Compound 89]	inhibition at 9 µM (SUMO E1; [1]): 95%
< 1		C=CC(=O)N1Cc2sc(Cl)cc2[C@@H](c2ccccc2-c2ccccc2)C1 [Compound 133]	inhibition at 1 µM (SUMO E1; [1]): 95%
< 1		C=CC(=O)N1Cc2cc(Br)ccc2[C@@H](c2ccccc2OC)C1 [Compound 70]	inhibition at 10 µM (SUMO E1; [3]): 60%

inhibition at 25 µM (Atg7) [%]	inhibition at 25 µM (SUMO E1; [2]) [%]	SMILES	further results
< 1		C=CC(=O)N1Cc2sc(Cl)cc2[C@@H](c2ccccc2C2CC2)C1 [Compound 135]	inhibition at 27 µM (SUMO E1; [1]): 95%
< 1	90	C=CC(=O)N1Cc2ccc(Br)cc2[C@@H](c2ccccc2C(F)(F)F)C1 [Compound 57]	
< 1	90	C=CC(=O)N1Cc2ccc(Br)cc2[C@@H](c2ccccc2)C1 [Compound 29]	
< 1	20	C=CC(=O)N1Cc2ccc(NS(=O)(=O)c3ccccc3)cc2C1 [Compound 17]	
< 1		C=CC(=O)N1Cc2cc(Cl)sc2[C@@H](c2ccccc2C)C1 [Compound 127]	inhibition at 27 µM (SUMO E1; 20 min preincubation, read-out: SUMO E1 percent inhibition of adduct formation): 95%
< 1		C=CC(=O)N1Cc2sc(Cl)cc2[C@@H](c2ccccc2-c2ccncc2)C1 [Compound 136]	inhibition at 3 µM (SUMO E1; 3 uM compound, 30 min preincubation, read-out: SUMO E1 percent inhibition of adduct formation): 100%
< 1		C=CC(=O)N1CCc2ccccc2[C@@H](c2ccccc2)[C@H]1C [Compound 140]	inhibition at 27 µM (SUMO E1; [1]): < 1%
< 1		C/C=C/C(=O)N1Cc2sc(Cl)cc2[C@@H](c2ccccc2C)C1 [Compound 97]	inhibition at 9 µM (SUMO E1; [1]): < 1%
< 1	< 1	C=CC(=O)N1CCc2cc(Cc3ccc(OC)cc3)ccc2C1 [Compound 23]	
< 1		C=CC(=O)N1Cc2sc(Cl)cc2[C@@H](c2ccccc2F)C1 [Compound 114]	inhibition at 1 µM (SUMO E1; [1]): 100%
< 1	< 1	C=CC(=O)N1Cc2ccc(Br)cc2C1 [Compound 9]	
< 1	70	C=CC(=O)N1CCc2cc(Br)ccc2C1 [Compound 3]	
< 1	< 1	C=CC(=O)N1CCc2ccccc2[C@@H]1c1ccccc1 (stereo in doubt) [Compound 10]	
< 1		C=CC(=O)N1Cc2cccc(Br)c2[C@@H](c2ccccc2C)C1 [Compound 69]	inhibition at 10 µM (SUMO E1; [3]): 60%
< 1	40	C=CC(=O)N1Cc2ccc(OC)cc2[C@@H](c2ccccc2)C1 [Compound 60]	
< 1	10	C=CC(=O)N1Cc2ccccc2C[C@H]1c1ccccc1 [Compound 26]	
< 1		Cc1cc2c(s1)CN(C(=O)CC#N)C[C@@H]2c1ccccc1 [Compound 95]	inhibition at 9 µM (SUMO E1; [1]): < 1%
< 1		C=CC(=O)N1Cc2oc(C)cc2[C@@H](c2ccccc2)C1 [Compound 83]	inhibition at 10 µM (SUMO E1; [1]): < 1%
		C=CC(=O)N1Cc2ccc(Br)cc2[C@@H](c2ccc(Cl)cc2)C1 [Compound 66]	Atg7 percent inhibition of adduct formation (Atg7): 25 uM 60 min <1%; SUMO E1 percent inhibition of adduct formation (SUMO E1; 25 uM compound, 60 min preincubation, 25 µM): 25 uM 60 min <1%
80		C=CC(=O)N1Cc2sc(Cl)cc2[C@@H](c2ccccc2OC)C1 [Compound 109]	inhibition at 27 µM (SUMO E1; [1]): 30%
